{
  "source": "patent US20240269139A1",
  "about": "“COMPOUNDS FOR TARGETED PROTEIN DEGRADATION OF KINASES” (DANA-FARBER CANCER INSTITUTE, INC., priority 2020, published 2024)",
  "key": {"[1]": {"molecular_target": "T1, protein kinases (human kinome) (Homo sapiens, UniProt O94768)", "T1 sequence (O94768 1-372)": "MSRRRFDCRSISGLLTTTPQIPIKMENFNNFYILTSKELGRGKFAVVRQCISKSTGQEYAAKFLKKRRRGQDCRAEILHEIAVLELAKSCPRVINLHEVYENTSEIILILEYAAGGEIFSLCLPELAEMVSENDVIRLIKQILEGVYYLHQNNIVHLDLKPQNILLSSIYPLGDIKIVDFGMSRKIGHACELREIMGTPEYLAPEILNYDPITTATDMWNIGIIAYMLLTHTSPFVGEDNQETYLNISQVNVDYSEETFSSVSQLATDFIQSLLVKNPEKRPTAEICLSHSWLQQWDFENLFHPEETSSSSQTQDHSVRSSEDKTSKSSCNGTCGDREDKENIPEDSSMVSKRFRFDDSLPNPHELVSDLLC", "assay_type": "cell-based", "settings": "for logFC STK17B (O94768): direction down; for logFC: STK17B (O94768)"}, "[2]": {"molecular_target": "protein kinases (human kinome) (Homo sapiens, UniProt Q8TDR2)", "sequence (Q8TDR2 whole entry)": "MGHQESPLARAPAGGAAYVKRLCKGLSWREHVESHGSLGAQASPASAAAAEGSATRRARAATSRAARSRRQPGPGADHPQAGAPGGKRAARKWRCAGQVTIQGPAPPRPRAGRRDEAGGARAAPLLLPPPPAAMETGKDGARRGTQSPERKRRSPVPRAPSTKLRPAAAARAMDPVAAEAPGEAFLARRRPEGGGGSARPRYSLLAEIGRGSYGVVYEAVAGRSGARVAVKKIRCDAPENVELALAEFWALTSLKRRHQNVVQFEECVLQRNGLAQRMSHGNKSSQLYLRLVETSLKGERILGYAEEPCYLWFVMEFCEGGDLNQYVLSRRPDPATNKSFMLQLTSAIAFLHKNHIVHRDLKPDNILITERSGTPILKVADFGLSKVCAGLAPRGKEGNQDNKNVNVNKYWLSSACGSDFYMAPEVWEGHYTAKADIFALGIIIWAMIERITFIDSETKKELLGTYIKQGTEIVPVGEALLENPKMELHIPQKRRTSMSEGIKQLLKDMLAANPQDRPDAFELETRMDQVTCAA", "assay_type": "cell-based"}},
  "note": "Like-named read-outs stand apart in the source and are kept apart here.",
  "data": [
    {"smiles": "O=C(COc1cccc2c1C(=O)N(C1CCC(=O)NC1=O)C2=O)NCCCCCCCN1CCc2cc(Nc3ncc(C4CC4)c(NCCCNC(=O)C4CCC4)n3)ccc2C1", "note": "(centres unmarked) [BSJ.04.178]", "values": [
      {"measurement": "logFC STK17B (O94768)", "setting": "[1]; Experiment wp134", "value": "−1.604"},
      {"measurement": "logFC", "setting": "[1]; experiment wp134", "value": "−1.604"}
    ]},
    {"smiles": "CS(=O)(=O)Nc1cccc(-c2csc3cnc(Nc4ccc(N5CCN(CCCCCOc6cccc7c6C(=O)N(C6CCC(=O)NC6=O)C7=O)CC5)cc4)nc23)c1", "note": "(centres unmarked) [DB0614, N-(3-(2-((4-(4-(5-((2-(2,6-Dioxopiperidin-3-yl)-1,3-dioxoisoindolin-4-yl)oxy)pentyl)piperazin-1-yl)phenyl)amino)thieno[3,2-d]pyrimidin-7-yl)phenyl)methanesulfonamide]", "values": [
      {"measurement": "logFC STK17B (O94768)", "setting": "[1]; Experiment wp045", "value": "−0.9829"},
      {"measurement": "logFC STK17B (O94768)", "setting": "[1]; Experiment wp117", "value": "−0.7771"},
      {"measurement": "logFC", "setting": "[1]; experiment wp045", "value": "−0.9829"},
      {"measurement": "logFC", "setting": "[1]; experiment wp117", "value": "−0.7771"}
    ]},
    {"smiles": "Cc1cc(Nc2ncc(Br)c(Nc3cccc(F)c3C(N)=O)n2)ccc1S(=O)(=O)NCCOCCOCCOCCOCCNc1cccc2c1C(=O)N(C1CCC(=O)NC1=O)C2=O", "note": "(centres unmarked) [TMX.02.174]", "values": [
      {"measurement": "logFC STK35", "setting": "[2]; Accession Q8TDR2, experiment wp146, direction down", "value": "−0.5631"},
      {"measurement": "logFC STK35", "setting": "[2]; STK35 (Q8TDR2), experiment wp146", "value": "−0.5631"}
    ]},
    {"smiles": "Cc1cnc(Nc2ccc(N3CCN(CCCCCCC(=O)N[C@H](C(=O)N4C[C@H](O)C[C@H]4C(=O)N[C@@H](C)c4ccc(-c5scnc5C)cc4)C(C)(C)C)CC3)cc2)nc1Nc1cccc(S(=O)(=O)NC(C)(C)C)c1", "note": "[JWG.123]", "values": [
      {"measurement": "logFC STK17B (O94768)", "setting": "[1]; Experiment wp195", "value": "−1.872"},
      {"measurement": "logFC", "setting": "[1]; experiment wp195", "value": "−1.872"}
    ]},
    {"smiles": "Cc1ncsc1-c1ccc([C@H](C)NC(=O)[C@@H]2C[C@@H](O)CN2C(=O)[C@@H](NC(=O)CCOCCOCCN2CCN(c3ccc(Nc4ncc(Cl)c(Nc5ccccc5S(=O)(=O)C(C)C)n4)cc3)CC2)C(C)(C)C)cc1", "note": "[FMF.06.098.1]", "values": [
      {"measurement": "logFC STK35", "setting": "[2]; Accession Q8TDR2, experiment wp108, direction down", "value": "−0.6029"},
      {"measurement": "logFC STK35", "setting": "[2]; Accession Q8TDR2, experiment wp114, direction down", "value": "−0.5116"},
      {"measurement": "logFC STK35", "setting": "[2]; Accession Q8TDR2, experiment wp131, direction down", "value": "−0.656"},
      {"measurement": "logFC STK35", "setting": "[2]; STK35 (Q8TDR2), experiment wp108", "value": "−0.6029"},
      {"measurement": "logFC STK35", "setting": "[2]; STK35 (Q8TDR2), experiment wp114", "value": "−0.5116"},
      {"measurement": "logFC STK35", "setting": "[2]; STK35 (Q8TDR2), experiment wp131", "value": "−0.656"}
    ]},
    {"smiles": "CS(=O)(=O)Nc1cccc(-c2csc3cnc(Nc4ccc(N5CCN(CCOCCOCCOc6cccc7c6C(=O)N(C6CCC(=O)NC6=O)C7=O)CC5)cc4)nc23)c1", "note": "(centres unmarked) [RSS0628]", "values": [
      {"measurement": "logFC STK17B (O94768)", "setting": "[1]; Experiment wp045", "value": "−1.075"},
      {"measurement": "logFC", "setting": "[1]; experiment wp045", "value": "−1.075"}
    ]},
    {"smiles": "Nc1ncc(-c2ccc(S(=O)(=O)N(CCCNC(=O)CCOCCOCCOCCOCCOCCNc3cccc4c3C(=O)N(C3CCC(=O)NC3=O)C4=O)C3CC3)cc2)cc1-c1ccc2c(c1)CCNC2=O", "note": "(centres unmarked) [WH.10417.099]", "values": [
      {"measurement": "logFC STK35", "setting": "[2]; Accession Q8TDR2, experiment wp056, direction down", "value": "−2.073"},
      {"measurement": "logFC STK35", "setting": "[2]; Accession Q8TDR2, experiment wp103, direction down", "value": "−1.239"},
      {"measurement": "logFC STK35", "setting": "[2]; Accession Q8TDR2, experiment wp107, direction down", "value": "−1.954"},
      {"measurement": "logFC STK35", "setting": "[2]; STK35 (Q8TDR2), experiment wp056", "value": "−2.073"},
      {"measurement": "logFC STK35", "setting": "[2]; STK35 (Q8TDR2), experiment wp103", "value": "−1.239"},
      {"measurement": "logFC STK35", "setting": "[2]; STK35 (Q8TDR2), experiment wp107", "value": "−1.954"},
      {"measurement": "logFC STK17B (O94768)", "setting": "[1]; Experiment wp056", "value": "−1.507"},
      {"measurement": "logFC STK17B (O94768)", "setting": "[1]; Experiment wp103", "value": "−1.292"},
      {"measurement": "logFC STK17B (O94768)", "setting": "[1]; Experiment wp105", "value": "−0.7924"},
      {"measurement": "logFC STK17B (O94768)", "setting": "[1]; Experiment wp107", "value": "−1.472"},
      {"measurement": "logFC STK17B (O94768)", "setting": "[1]; Experiment wp172", "value": "−1.234"},
      {"measurement": "logFC", "setting": "[1]; experiment wp056", "value": "−1.507"},
      {"measurement": "logFC", "setting": "[1]; experiment wp103", "value": "−1.292"},
      {"measurement": "logFC", "setting": "[1]; experiment wp105", "value": "−0.7924"},
      {"measurement": "logFC", "setting": "[1]; experiment wp107", "value": "−1.472"},
      {"measurement": "logFC", "setting": "[1]; experiment wp172", "value": "−1.234"}
    ]},
    {"smiles": "Cc1ncsc1-c1ccc([C@H](C)NC(=O)[C@@H]2C[C@@H](O)CN2C(=O)[C@@H](NC(=O)CCCCCN2CCc3cc(Nc4ncc(C5CC5)c(NCCCNC(=O)C5CCC5)n4)ccc3C2)C(C)(C)C)cc1", "note": "[BSJ.05.026]", "values": [
      {"measurement": "logFC STK17B (O94768)", "setting": "[1]; Experiment wp195", "value": "−0.9299"},
      {"measurement": "logFC", "setting": "[1]; experiment wp195", "value": "−0.9299"}
    ]},
    {"smiles": "O=C1CCC(N2C(=O)c3cccc(NCCCCCCCCN4CCC(NC(=O)c5[nH]ncc5NC(=O)c5c(Cl)cccc5Cl)CC4)c3C2=O)C(=O)N1", "note": "(centres unmarked) [MFH.5.126.1]", "values": [
      {"measurement": "logFC STK17B (O94768)", "setting": "[1]; Experiment wp076", "value": "−0.5821"},
      {"measurement": "logFC", "setting": "[1]; experiment wp076", "value": "−0.5821"}
    ]}
  ]
}
